From paper PMC5845353, “The selective cathepsin K inhibitor MIV-711 attenuates joint pathology in experimental animal models of osteoarthritis” (Journal of Translational Medicine, 2018)

Test system: rabbits subjected to anterior cruciate ligament transection (ACLT)
Test: Rabbit ACLT study, histomorphometry of bone, cartilage and osteophytes
Format: in vivo
Description: The femora and tibias were decalcified, embedded in paraffin, sectioned at 5-7 µm at two different levels separated by approximately 2 mm, and stained with safranin O and toluidine blue.
Both tibial plateaus and femoral condyles (i.e. four joint compartments) were also subjected to histomorphometric analysis of cartilage, subchondral bone, cancellous bone, and osteophytes. The measurements were made using OsteoMeasureXP version 3.3.0.2 as follows:
Uncalcified cartilage area was measured by tracing the articular surface (cartilage perimeter) and bone or calcified cartilage/uncalcified cartilage interface (cartilage boundary).
Cartilage width was measured by point to point measurement at intersections between a sampling grid with approximately 0.5 mm spacing and the cartilage boundary. The intercepts measured were orthogonal to the cartilage boundary and ended at the cartilage perimeter. At intersections where the cartilage width was zero due to erosion, a value of zero was recorded.
Subchondral bone width was measured by point to point measurement at intersections between a sampling grid with approximately 0.5 mm spacing and the cartilage boundary. The intercepts measured were orthogonal to the cartilage boundary and ended at the first marrow cavity encountered that had at least one dimension approximately equivalent to nearby trabecular thickness.
Osteophyte area was measured for abaxial osteophytes. On the femur, osteophytes associated with the condyles but not with the trochlear grooves were measured.
Bone area (including osteoid) and perimeter were measured in a 3.8 X 1.5 mm ROI centered approximately 1 mm below the bone/cartilage interface. This ROI was intended to be equivalent to the subchondral cancellous bone VOI measured by microCT. Bone volume (BV/TV), trabecular thickness (Tb.Th), trabecular number (Tb.N) and trabecular separation (Tb.Sp) were derived from these measurements using standard formulae.
Slides were evaluated in animal ID order, i.e. in random order with respect to treatment, so that the measurer was effectively blinded to treatment assignment.
Analysis was performed on all four condyles at two levels (Level 1 and 2) for each condyle:
Group 1) sham + vehicle; Group 2) ACLT + vehicle; Group 3) ACLT + MIV-711, 30 µmol/kg (low dose) and Group 4) ACLT + MIV-711, 100 µmol/kg (high dose).

[1] = Level 1 LFC, Group 3, ACLT + MIV-711 30 µmol/kg
[2] = Level 1 LFC, Group 4, ACLT + MIV-711 100 µmol/kg
[3] = Level 1 LTP, Group 3, ACLT + MIV-711 30 µmol/kg
[4] = Level 1 LTP, Group 4, ACLT + MIV-711 100 µmol/kg
[5] = Level 1 MFC, Group 3, ACLT + MIV-711 30 µmol/kg
[6] = Level 1 MFC, Group 4, ACLT + MIV-711 100 µmol/kg

SMILES: C#C[C@@H]1CN(C(=O)[C@H](CC(C)C)NC(=O)c2ccc(-c3nc(N4CCN(C)CC4)sc3F)cc2)[C@@H]2C(=O)CO[C@H]12 [MIV-711]
- effect on osteophyte parameters at the microscopic level (ACLT rabbits, 30 and 100 µmol/kg): did not affect
- Cart.Bd, Mean (Level 1, MFC, Group 3): 8.37 mm
- Cart.Bd, Median (Level 1, MFC, Group 3): 8.42 mm
- Cart.Pm, Mean (Level 1, MFC, Group 3): 9.31 mm
- Cart.Pm, Median (Level 1, MFC, Group 3): 9.55 mm
- Cart.Wi, Mean (Level 1, MFC, Group 3): 264.49 µm
- Cart.Wi, Median (Level 1, MFC, Group 3): 233.46 µm
- SCB.Wi, Mean (Level 1, MFC, Group 3): 796.52 µm
- SCB.Wi, Median (Level 1, MFC, Group 3): 695.73 µm
- Cart.Bd, Mean (Level 1, MFC, Group 4): 8.94 mm
- Cart.Bd, Median (Level 1, MFC, Group 4): 8.89 mm
- Cart.Pm, Mean (Level 1, MFC, Group 4): 10.24 mm
- Cart.Pm, Median (Level 1, MFC, Group 4): 10.20 mm
- Cart.Wi, Mean (Level 1, MFC, Group 4): 323.96 µm
- Cart.Wi, Median (Level 1, MFC, Group 4): 341.58 µm
- SCB.Wi, Mean (Level 1, MFC, Group 4): 655.48 µm
- SCB.Wi, Median (Level 1, MFC, Group 4): 627.36 µm
- BV/TV, Mean (Level 1, MTP, Group 3): 37.43%
- BV/TV, Median (Level 1, MTP, Group 3): 39.13%
- Cart.Ar, Mean (Level 1, MTP, Group 3): 3.43 mm2
- Cart.Ar, Median (Level 1, MTP, Group 3): 3.15 mm2
- Cart.Bd, Mean (Level 1, MTP, Group 3): 5.74 mm
- Cart.Bd, Median (Level 1, MTP, Group 3): 5.82 mm
- Cart.Pm, Mean (Level 1, MTP, Group 3): 5.96 mm
- Cart.Pm, Median (Level 1, MTP, Group 3): 5.73 mm
- Cart.Wi, Mean (Level 1, MTP, Group 3): 627.75 µm
- Cart.Wi, Median (Level 1, MTP, Group 3): 633.18 µm
- Ophte.Ar, Mean (Level 1, MTP, Group 3): 7.76 mm2
- Ophte.Ar, Median (Level 1, MTP, Group 3): 7.61 mm2
- SCB.Wi, Mean (Level 1, MTP, Group 3): 718.50 µm
- SCB.Wi, Median (Level 1, MTP, Group 3): 715.91 µm
- Tb.N, Mean (Level 1, MTP, Group 3): 2.07 1/mm
- Tb.N, Median (Level 1, MTP, Group 3): 1.97 1/mm
- Tb.Sp, Mean (Level 1, MTP, Group 3): 306.15 µm
- Tb.Sp, Median (Level 1, MTP, Group 3): 294.58 µm
- Tb.Th, Mean (Level 1, MTP, Group 3): 182.44 µm
- Tb.Th, Median (Level 1, MTP, Group 3): 174.84 µm
- BV/TV, Mean (Level 1, MTP, Group 4): 35.92%
- BV/TV, Median (Level 1, MTP, Group 4): 35.01%
- Cart.Ar, Mean (Level 1, MTP, Group 4): 2.98 mm2
- Cart.Ar, Median (Level 1, MTP, Group 4): 3.00 mm2
- Cart.Bd, Mean (Level 1, MTP, Group 4): 5.22 mm
- Cart.Bd, Median (Level 1, MTP, Group 4): 5.08 mm
- Cart.Pm, Mean (Level 1, MTP, Group 4): 6.31 mm
- Cart.Pm, Median (Level 1, MTP, Group 4): 5.70 mm
- Cart.Wi, Mean (Level 1, MTP, Group 4): 618.52 µm
- Cart.Wi, Median (Level 1, MTP, Group 4): 551.09 µm
- Ophte.Ar, Mean (Level 1, MTP, Group 4): 9.09 mm2
- Ophte.Ar, Median (Level 1, MTP, Group 4): 7.85 mm2
- SCB.Wi, Mean (Level 1, MTP, Group 4): 839.92 µm
- SCB.Wi, Median (Level 1, MTP, Group 4): 790.92 µm
- Tb.N, Mean (Level 1, MTP, Group 4): 1.91 1/mm
- Tb.N, Median (Level 1, MTP, Group 4): 1.80 1/mm
- Tb.Sp, Mean (Level 1, MTP, Group 4): 346.56 µm
- Tb.Sp, Median (Level 1, MTP, Group 4): 370.02 µm
- Tb.Th, Mean (Level 1, MTP, Group 4): 190.56 µm
- Tb.Th, Median (Level 1, MTP, Group 4): 188.86 µm
- BV/TV, Mean [1]: 37.49%
- BV/TV, Median [1]: 36.26%
- Cart.Ar, Mean [1]: 2.52 mm2
- Cart.Ar, Median [1]: 2.55 mm2
- Cart.Bd, Mean [1]: 9.42 mm
- Cart.Bd, Median [1]: 9.52 mm
- Cart.Pm, Mean [1]: 10.23 mm
- Cart.Pm, Median [1]: 10.40 mm
- Cart.Wi, Mean [1]: 263.55 µm
- Cart.Wi, Median [1]: 269.31 µm
- Ophte.Ar, Mean [1]: 2.48 mm2
- Ophte.Ar, Median [1]: 1.89 mm2
- SCB.Wi, Mean [1]: 527.88 µm
- SCB.Wi, Median [1]: 537.74 µm
- Tb.N, Mean [1]: 2.87 1/mm
- Tb.N, Median [1]: 2.78 1/mm
- Tb.Sp, Mean [1]: 221.27 µm
- Tb.Sp, Median [1]: 221.54 µm
- Tb.Th, Mean [1]: 131.58 µm
- Tb.Th, Median [1]: 132.19 µm
- BV/TV, Mean [2]: 40.76%
- BV/TV, Median [2]: 39.99%
- Cart.Ar, Mean [2]: 3.28 mm2
- Cart.Ar, Median [2]: 3.33 mm2
- Cart.Bd, Mean [2]: 11.05 mm
- Cart.Bd, Median [2]: 11.43 mm
- Cart.Pm, Mean [2]: 11.98 mm
- Cart.Pm, Median [2]: 12.38 mm
- Cart.Wi, Mean [2]: 290.77 µm
- Cart.Wi, Median [2]: 272.05 µm
- Ophte.Ar, Mean [2]: 3.18 mm2
- Ophte.Ar, Median [2]: 1.06 mm2
- SCB.Wi, Mean [2]: 478.03 µm
- SCB.Wi, Median [2]: 466.56 µm
- Tb.N, Mean [2]: 2.76 1/mm
- Tb.N, Median [2]: 2.79 1/mm
- Tb.Sp, Mean [2]: 215.44 µm
- Tb.Sp, Median [2]: 222.15 µm
- Tb.Th, Mean [2]: 147.91 µm
- Tb.Th, Median [2]: 146.15 µm
- BV/TV, Mean [3]: 43.89%
- BV/TV, Median [3]: 43.62%
- Cart.Ar, Mean [3]: 2.03 mm2
- Cart.Ar, Median [3]: 2.02 mm2
- Cart.Bd, Mean [3]: 6.10 mm
- Cart.Bd, Median [3]: 6.13 mm
- Cart.Pm, Mean [3]: 6.15 mm
- Cart.Pm, Median [3]: 6.13 mm
- Cart.Wi, Mean [3]: 340.85 µm
- Cart.Wi, Median [3]: 342.70 µm
- Ophte.Ar, Mean [3]: 0.43 mm2
- Ophte.Ar, Median [3]: 0.58 mm2
- SCB.Wi, Mean [3]: 532.09 µm
- SCB.Wi, Median [3]: 572.30 µm
- Tb.N, Mean [3]: 2.79 1/mm
- Tb.N, Median [3]: 2.77 1/mm
- Tb.Sp, Mean [3]: 202.57 µm
- Tb.Sp, Median [3]: 211.29 µm
- Tb.Th, Mean [3]: 159.11 µm
- Tb.Th, Median [3]: 141.92 µm
- BV/TV, Mean [4]: 43.87%
- BV/TV, Median [4]: 45.02%
- Cart.Ar, Mean [4]: 2.49 mm2
- Cart.Ar, Median [4]: 2.63 mm2
- Cart.Bd, Mean [4]: 6.56 mm
- Cart.Bd, Median [4]: 6.67 mm
- Cart.Pm, Mean [4]: 6.48 mm
- Cart.Pm, Median [4]: 6.62 mm
- Cart.Wi, Mean [4]: 391.09 µm
- Cart.Wi, Median [4]: 393.49 µm
- Ophte.Ar, Mean [4]: 0.62 mm2
- Ophte.Ar, Median [4]: 0.37 mm2
- SCB.Wi, Mean [4]: 557.78 µm
- SCB.Wi, Median [4]: 592.81 µm
- Tb.N, Mean [4]: 2.47 1/mm
- Tb.N, Median [4]: 2.39 1/mm
- Tb.Sp, Mean [4]: 232.42 µm
- Tb.Sp, Median [4]: 223.55 µm
- Tb.Th, Mean [4]: 179.81 µm
- Tb.Th, Median [4]: 179.09 µm
- BV/TV, Mean [5]: 52.87%
- BV/TV, Median [5]: 51.00%
- Cart.Ar, Mean [5]: 2.30 mm2
- Cart.Ar, Median [5]: 2.03 mm2
- Ophte.Ar, Mean [5]: 2.75 mm2
- Ophte.Ar, Median [5]: 2.12 mm2
- Tb.N, Mean [5]: 2.87 1/mm
- Tb.N, Median [5]: 2.98 1/mm
- Tb.Sp, Mean [5]: 164.11 µm
- Tb.Sp, Median [5]: 161.32 µm
- Tb.Th, Mean [5]: 190.82 µm
- Tb.Th, Median [5]: 169.90 µm
- BV/TV, Mean [6]: 46.41%
- BV/TV, Median [6]: 48.01%
- Cart.Ar, Mean [6]: 2.99 mm2
- Cart.Ar, Median [6]: 3.31 mm2
- Ophte.Ar, Mean [6]: 5.87 mm2
- Ophte.Ar, Median [6]: 1.02 mm2
- Tb.N, Mean [6]: 2.87 1/mm
- Tb.N, Median [6]: 2.92 1/mm
- Tb.Sp, Mean [6]: 189.94 µm
- Tb.Sp, Median [6]: 173.69 µm
- Tb.Th, Mean [6]: 161.31 µm
